This assay addresses Heat shock protein HSP90 (Homo sapiens, UniProt P07900+P08238). Kind of assay: Binding affinity to HSP90 CTD (unknown origin) by circular dichroism spectroscopy. The assay is classed as protein assay. On the technique in general: Circular dichroism is widely used to follow secondary structure.

These results are taken from ChEMBL document CHEMBL4304803, “C-terminal modulators of heat shock protein of 90 kDa (HSP90): State of development and modes of action” (Bioorg Med Chem, 2019).

As a reminder, the Kd is the equilibrium constant for the complex coming apart. A low value points to tighter binding. Regarding `CC[C@H](C)[C@@H](ONC(=O)[C@H](ONC(=O)[C@@H](Cc1ccccc1)ONC(=O)[C@@H](Cc1ccccc1)ONC(=O)OCc1ccccc1)[C@@H](C)CC)C(=O)NO[C@H](CC(C)C)C(=O)NO[C@H](CC(C)C)C(N)=O`, the Kd was found to be 27.4 µM.
